From ChEMBL document CHEMBL1201862, “PubChem BioAssay data set” (2004)
Calls of active or inactive are those of the source.

What was measured:
[1] = target: 1-phosphatidylinositol 4,5-bisphosphate phosphodiesterase gamma-1 (Homo sapiens, UniProt P19174); experiment: Counterscreen for inhibitors of phospholipase C isozymes (PLC-B3): Fluorescence-based biochemical high throughput dose response assay to identify inhibitors of phospholipase C isozymes (PLC-gamma1).
[2] = target: 1-phosphatidylinositol 4,5-bisphosphate phosphodiesterase beta-3 (Homo sapiens, UniProt Q01970); experiment: Fluorescence-based biochemical high throughput dose response assay to identify inhibitors of phospholipase C isozymes (PLC-B3).
Chain of 1-phosphatidylinositol 4,5-bisphosphate phosphodiesterase beta-3 (Q01970 whole entry): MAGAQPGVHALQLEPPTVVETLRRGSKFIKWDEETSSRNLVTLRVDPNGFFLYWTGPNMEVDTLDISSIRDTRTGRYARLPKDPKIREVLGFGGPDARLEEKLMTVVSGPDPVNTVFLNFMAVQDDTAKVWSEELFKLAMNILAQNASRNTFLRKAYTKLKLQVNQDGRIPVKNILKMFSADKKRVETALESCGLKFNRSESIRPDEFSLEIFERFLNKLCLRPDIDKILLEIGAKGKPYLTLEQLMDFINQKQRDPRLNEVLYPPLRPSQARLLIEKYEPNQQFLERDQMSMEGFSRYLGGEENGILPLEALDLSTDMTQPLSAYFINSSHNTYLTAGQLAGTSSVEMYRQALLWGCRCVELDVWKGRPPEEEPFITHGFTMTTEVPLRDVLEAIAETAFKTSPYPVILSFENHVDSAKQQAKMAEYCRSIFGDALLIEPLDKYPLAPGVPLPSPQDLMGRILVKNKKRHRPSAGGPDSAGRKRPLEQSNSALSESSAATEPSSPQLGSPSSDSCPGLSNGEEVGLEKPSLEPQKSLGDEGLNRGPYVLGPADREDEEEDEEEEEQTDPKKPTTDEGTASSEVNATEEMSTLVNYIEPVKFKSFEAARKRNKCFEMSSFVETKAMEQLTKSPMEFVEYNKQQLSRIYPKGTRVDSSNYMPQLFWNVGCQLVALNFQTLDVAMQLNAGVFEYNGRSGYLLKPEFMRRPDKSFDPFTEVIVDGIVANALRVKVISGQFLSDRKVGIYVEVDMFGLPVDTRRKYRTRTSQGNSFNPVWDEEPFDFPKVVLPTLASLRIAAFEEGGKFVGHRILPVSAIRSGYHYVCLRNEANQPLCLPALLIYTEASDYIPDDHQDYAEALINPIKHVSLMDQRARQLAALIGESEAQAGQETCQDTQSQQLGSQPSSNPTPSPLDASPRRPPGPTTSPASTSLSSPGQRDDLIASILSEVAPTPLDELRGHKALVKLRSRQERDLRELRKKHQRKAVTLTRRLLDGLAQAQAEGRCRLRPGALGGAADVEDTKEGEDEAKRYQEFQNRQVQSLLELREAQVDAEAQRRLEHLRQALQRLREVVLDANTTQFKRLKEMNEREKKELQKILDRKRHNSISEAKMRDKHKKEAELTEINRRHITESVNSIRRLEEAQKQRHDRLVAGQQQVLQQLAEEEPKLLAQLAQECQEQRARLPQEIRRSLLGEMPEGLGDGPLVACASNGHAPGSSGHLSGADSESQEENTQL

fMet-Leu-Phe receptor = fMet-Leu-Phe receptor (Homo sapiens, UniProt P21462); experiment: formyl peptide receptor binders – dose response (AID 519); type: functional
Chain of fMet-Leu-Phe receptor (P21462 whole entry): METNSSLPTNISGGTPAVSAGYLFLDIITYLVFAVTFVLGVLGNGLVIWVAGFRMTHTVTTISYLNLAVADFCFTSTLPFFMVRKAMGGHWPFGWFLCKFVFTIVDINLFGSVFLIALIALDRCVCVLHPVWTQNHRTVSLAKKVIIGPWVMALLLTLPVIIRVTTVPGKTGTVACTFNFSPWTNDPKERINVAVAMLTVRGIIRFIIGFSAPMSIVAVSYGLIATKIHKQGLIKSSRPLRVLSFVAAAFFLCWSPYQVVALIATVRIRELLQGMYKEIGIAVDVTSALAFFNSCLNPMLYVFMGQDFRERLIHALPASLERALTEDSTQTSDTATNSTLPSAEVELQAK

[3] = IC50 of Artemis nuclease activity blockers – biochemical, fluorescence intensity, dose response (AID 720701); type: functional;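 note: Artemis endonuclease enzyme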
BJ [4] = experiment: cells; type: functional, cell-based; conditions: Homo sapiens
[5] = inhibitors acting on PAX2 in cells – cell-based, plate reader, dry powder samples, selectivity assay for PAX8 inhibitor project, dose response (AID 743048); type: functional;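 note: HEK293 cells carrying a WT1 promoter luciferase reporter driven by expressed Pax2; potency is for inhibition of Pax2 driven reporter signal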
[6] = OVCAR-3 cell viability loss – plate reader, dry powder samples, PAX8 inhibitor project, dose response (AID 743044); type: functional, cell-based
[7] = HEK-293T viability loss after treatment – luminescence, T-cell screen hits, cytotoxicity control for TCR NF-kB inhibitor project, dose response (AID 489026); type: functional, cell-based;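 note: cells exposed to compound about 14 hours before the viability readout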
[8] = DRD fibroblast viability loss – cell-based, non-viral oncogenic, luminescence, dose response (AID 1934); type: functional; conditions: Homo sapiens
BJ [9] = experiment: BJ-TERT fibroblast viability loss – cell-based, RAS-independent, luminescence, dose response (AID 1933); type: functional; conditions: Homo sapiens
[10] = OVCAR4 cell viability loss – plate reader, dry powder, SA11, cytotoxicity control for PAX8 inhibitor project, dose response (AID 743150); type: functional, cell-based; conditions: OVCAR-4
BJ [11] = experiment: BJ-TERT-LT-ST fibroblast viability loss – cell-based, RAS-independent, luminescence, dose response (AID 1935); type: functional; conditions: Homo sapiens;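 note: BJ fibroblasts immortalized with TERT plus LT and ST oncogenes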
[12] = IGROV1 cell killing – plate reader, dry powder samples, PAX8 inhibitor project, dose response (AID 743043); type: functional, cell-based; conditions: IGROV-1
[13] = toxicity toward immortalized ovarian surface epithelium – cell-based, plate reader, dry powder samples, cytotoxicity control for PAX8 inhibitor project, dose response (AID 743045); type: functional
[14] = A2780 cell killing – plate reader, dry powder samples, cytotoxicity control, dose response (AID 743046); type: functional, cell-based
Paired box protein Pax-8 = Paired box protein Pax-8 (Homo sapiens, UniProt Q06710); experiment: PAX8 transcriptional activity inhibition in RMG-I – RMG-I cells, luciferase, cherry-pick, dose response (AID 687027); type: functional, cell-based;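 note: luciferase reporter driven by Pax8 target thyroperoxidase promoter measured by SteadyGlo luminescence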
Chain of Paired box protein Pax-8 (Q06710 whole entry): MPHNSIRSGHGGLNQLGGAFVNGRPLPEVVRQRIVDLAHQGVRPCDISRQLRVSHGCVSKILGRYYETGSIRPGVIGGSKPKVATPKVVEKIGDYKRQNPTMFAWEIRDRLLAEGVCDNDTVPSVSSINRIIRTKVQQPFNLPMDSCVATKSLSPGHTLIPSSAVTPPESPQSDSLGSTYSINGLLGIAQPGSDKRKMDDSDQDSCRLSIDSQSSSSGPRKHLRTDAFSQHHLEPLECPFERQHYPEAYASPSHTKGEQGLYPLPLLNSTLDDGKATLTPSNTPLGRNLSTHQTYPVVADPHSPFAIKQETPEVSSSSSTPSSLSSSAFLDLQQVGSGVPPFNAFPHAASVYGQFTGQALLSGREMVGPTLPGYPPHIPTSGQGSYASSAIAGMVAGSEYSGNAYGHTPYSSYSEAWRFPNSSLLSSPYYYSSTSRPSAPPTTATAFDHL

[15] = COV362 cell viability loss – plate reader, dry powder, SA12, cytotoxicity control for PAX8 inhibitor project, dose response (AID 743144); type: functional, cell-based
[16] = reduction of Shn3 3'UTR-driven luciferase in osteoblasts – cell-based, Clone20 osteoblasts, firefly luciferase, cherry-picked, dose response (AID 624132); type: functional;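 note: firefly luciferase luminescence from reporter carrying the Shn3 3'UTR in osteoblasts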
[17] = PAX8-dependent cell viability loss – plate reader, dry powder, dose response (AID 743049); type: functional, cell-based
BJ [18] = experiment: growth inhibition of engineered Ras-driven BJ cells – cell-based, alamar blue fluorescence, cherrypicked samples, dose response (AID 2631); type: functional; conditions: Homo sapiens;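 note: confirmatory dose-response assay in RAS-dependent BJ fibroblasts engineered with TERT, LT and ST, with cytotoxicity read by fluorescence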
[19] = PAX5 cellular inhibition readout – cell-based, plate reader, dry powder samples, selectivity assay for PAX8 inhibitor project, dose response (AID 743047); type: functional;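 note: HEK293 cells carrying a Pax5 driven CD19 promoter luciferase reporter; potency of inhibitors that lower reporter luminescence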
[20] = non-specific 3'UTR reporter inhibition in Clone20-Shn3RL – cell-based, Renilla luciferase, cherry-picked, counter-screen for Shn3 inhibitor project, dose response (AID 624133); type: functional
[21] = OV-90 cell viability loss – plate reader, dry powder, SA8, PAX8 inhibitor project, dose response (AID 743149); type: functional, cell-based
[22] = COV434 cell viability loss – plate reader, dry powder, SA7, cytotoxicity control for PAX8 inhibitor project, dose response (AID 743145); type: functional, cell-based
[23] = target: T1, Heat shock factor protein 1 (Mus musculus, UniProt P38532); experiment: decrease of HSF1-responsive luciferase luminescence – cell-based, NIH3T3, dose retest, confirmation (AID 2382); type: functional;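 note: NIH3T3 fibroblasts with HSF1-driven luciferase reporter stressed by proteasome inhibitor MG132; luminescence from HSF1-driven luciferase expression after 8 hours of MG132 stress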
T1 sequence (P38532 whole entry): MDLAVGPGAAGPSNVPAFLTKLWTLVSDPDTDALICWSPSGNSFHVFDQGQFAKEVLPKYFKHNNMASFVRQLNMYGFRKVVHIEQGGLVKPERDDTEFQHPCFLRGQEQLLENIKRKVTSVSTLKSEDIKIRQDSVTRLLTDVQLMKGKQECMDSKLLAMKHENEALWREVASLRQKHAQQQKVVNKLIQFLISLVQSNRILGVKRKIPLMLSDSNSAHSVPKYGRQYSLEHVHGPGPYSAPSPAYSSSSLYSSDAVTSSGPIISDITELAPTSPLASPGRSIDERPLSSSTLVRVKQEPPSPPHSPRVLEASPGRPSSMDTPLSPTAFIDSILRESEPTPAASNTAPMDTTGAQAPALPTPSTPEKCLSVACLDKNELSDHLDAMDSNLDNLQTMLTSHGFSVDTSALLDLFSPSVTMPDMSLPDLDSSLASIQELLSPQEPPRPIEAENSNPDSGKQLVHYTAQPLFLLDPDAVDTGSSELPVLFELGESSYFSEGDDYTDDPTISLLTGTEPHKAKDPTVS

[24] = reduced cellular PGC1a acetyl-lysine signal – cell-based, cherry-picked samples, dose response (AID 720514); type: functional;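 note: potency may reflect raised or lowered acetylation signal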
[25] = target: T2, Oxysterols receptor LXR-beta (Homo sapiens, UniProt P55055); experiment: LXR agonists, Gal4 luciferase reporter, dose response, counter-screen for ssDAF-12 agonist project, cell-based, luminescence, HEK293, S. stercoralis campaign (AID 720737); type: functional; conditions: read-out: IC50 (the source's name)
T2 sequence (P55055 whole entry): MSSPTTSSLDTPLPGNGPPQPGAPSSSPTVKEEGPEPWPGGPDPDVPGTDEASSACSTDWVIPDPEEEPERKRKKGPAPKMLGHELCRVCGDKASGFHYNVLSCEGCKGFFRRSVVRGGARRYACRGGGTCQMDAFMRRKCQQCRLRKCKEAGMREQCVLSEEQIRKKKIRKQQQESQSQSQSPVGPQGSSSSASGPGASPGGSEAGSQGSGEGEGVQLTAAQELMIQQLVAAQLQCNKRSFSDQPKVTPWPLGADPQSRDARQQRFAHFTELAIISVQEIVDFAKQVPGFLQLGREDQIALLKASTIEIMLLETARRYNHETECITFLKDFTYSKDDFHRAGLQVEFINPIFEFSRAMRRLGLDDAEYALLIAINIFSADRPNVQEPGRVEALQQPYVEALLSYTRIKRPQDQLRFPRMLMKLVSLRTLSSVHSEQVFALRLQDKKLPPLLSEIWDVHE

[26] = Luminescence-based cell-based high throughput dose response assay to identify activators of the DAF-12 from the parasite S. stercoralis (ssDAF-12).; type: functional
[27] = A549 cell viability loss – cherry-picked samples, cytotoxicity control, dose response (AID 1053184); type: functional, cell-based
[28] = HepG2 cell viability loss – cherry-picked samples, cytotoxicity control, dose response (AID 1053183); type: functional, cell-based
[29] = HEK293 cell viability loss – cherry-picked samples, cytotoxicity control, dose response (AID 1053185); type: functional, cell-based
[30] = intracellular Trypanosoma cruzi inhibitors in host cells – cell-based, plate reader, cherry-pick samples, set 3, dose response (AID 651818); type: functional;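 note: compounds incubated with infected cells for about four days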
[31] = Late stage assay provider results from the probe development effort to identify selective inhibitors of heat shock protein 90 (HSP90): Absorbance-based cell proliferation assay in MCF7 cells.; type: functional
[32] = Late stage assay provider results from the probe development effort to identify selective inhibitors of heat shock protein 90 (HSP90): Absorbance-based cell proliferation assay in SKBR3 cells.; type: functional; conditions: SK-BR-3
[33] = cytotoxicity in mouse C2C12 myoblasts – cell-based, CellTiter-Glo ATP luminescence, 8/24/48 h, dry powder, cytotoxicity control for HRAS target identification, dose response (AID 720603); type: functional
[34] = cytotoxicity in primary human umbilical endothelium – cell-based, CellTiter-Glo ATP luminescence, 8/24/48 h, dry powder, cytotoxicity control for HRAS target identification, dose response (AID 720604); type: functional; conditions: HUVEC
[35] = cytotoxicity in CCRF-CEM lymphoblastic leukemia cells – cell-based, CellTiter-Glo ATP luminescence, 8/24/48 h, dry powder, HRAS target identification, dose response (AID 720607); type: functional
[36] = cytotoxicity in HeLa cervical cancer cells – cell-based, CellTiter-Glo ATP luminescence, 8-48 h, dry powder, mechanism study for HRAS target identification, late-stage follow-up (AID 720609); type: functional
[37] = cytotoxicity in LOX IMVI melanoma cells – cell-based, CellTiter-Glo ATP luminescence, 8/24/48 h, dry powder, HRAS target identification, dose response (AID 720602); type: functional
[38] = time-course viability loss in HT-29 cells – cell-based, CellTiter-Glo, multiple timepoints, dry powder, HRas target identification project, dose response (AID 720598); type: functional
[39] = cytotoxicity in SNB-19 CNS tumor cells – cell-based, Alamar Blue fluorescence, 8/24/48 h, dry powder, HRAS target identification, dose response (AID 720600); type: functional
[40] = cytotoxicity in SNB-75 CNS cells – cell-based, CellTiter-Glo ATP luminescence, several timepoints, dry powder, mechanism study for HRAS target identification, late-stage follow-up (AID 720624); type: functional
[41] = cytotoxicity in SR immunoblastic lymphoma cells – cell-based, CellTiter-Glo ATP luminescence, 8-48 h, dry powder, mechanism study for HRAS target identification, late-stage follow-up (AID 720608); type: functional
[42] = cytotoxicity in U-251 glioma cells – cell-based, CellTiter-Glo ATP luminescence, several timepoints, dry powder, mechanism study for HRAS target identification, late-stage follow-up (AID 720616); type: functional
[43] = cytotoxicity in SNB-19 cells – cell-based, CellTiter-Glo ATP luminescence, 8-48 h, dry powder, mechanism study for HRAS target identification, late-stage follow-up (AID 720611); type: functional
[44] = Late stage assay provider results from the probe development effort to identify inhibitors of the Plasmodium falciparum M18 Aspartyl Aminopeptidase (M18AAP): radiolabel-based cell-based dose response assay to identify compounds that inhibit P. falciparum growth in RBCs, Set 2..; type: functional
Kallikrein-7 = Kallikrein-7 (Homo sapiens, UniProt P49862); experiment: Fluorescence Intensity-based biochemical primary high throughput dose response assay to identify activators of kallikrein-7 (K7) zymogen.
Chain of Kallikrein-7 (P49862 whole entry): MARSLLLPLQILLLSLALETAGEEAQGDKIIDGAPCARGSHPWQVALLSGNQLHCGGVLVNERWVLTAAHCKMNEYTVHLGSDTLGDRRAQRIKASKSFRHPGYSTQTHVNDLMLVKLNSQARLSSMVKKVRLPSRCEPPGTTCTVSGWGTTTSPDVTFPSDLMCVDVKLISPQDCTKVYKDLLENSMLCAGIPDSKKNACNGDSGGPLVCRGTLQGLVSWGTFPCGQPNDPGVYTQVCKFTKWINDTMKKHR

[45] = target: Potassium channel subfamily K member 3 (Homo sapiens, UniProt O14649); experiment: inhibition of human KCNK3 channel flux – CHO cells, FluxOR thallium flux, SAR follow-up (AID 652212); type: functional
Chain of Potassium channel subfamily K member 3 (O14649 whole entry): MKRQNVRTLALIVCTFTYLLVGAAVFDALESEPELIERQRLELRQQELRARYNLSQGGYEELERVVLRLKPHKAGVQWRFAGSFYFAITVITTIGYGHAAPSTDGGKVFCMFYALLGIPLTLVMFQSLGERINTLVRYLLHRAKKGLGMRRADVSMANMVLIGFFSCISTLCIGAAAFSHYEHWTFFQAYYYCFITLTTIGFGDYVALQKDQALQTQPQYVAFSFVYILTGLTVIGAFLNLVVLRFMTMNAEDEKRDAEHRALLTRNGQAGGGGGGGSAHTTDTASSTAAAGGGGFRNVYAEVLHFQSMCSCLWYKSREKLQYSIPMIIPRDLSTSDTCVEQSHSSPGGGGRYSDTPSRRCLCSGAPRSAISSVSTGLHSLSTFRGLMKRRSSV

Chain of 1-phosphatidylinositol 4,5-bisphosphate phosphodiesterase gamma-1 (P19174 whole entry): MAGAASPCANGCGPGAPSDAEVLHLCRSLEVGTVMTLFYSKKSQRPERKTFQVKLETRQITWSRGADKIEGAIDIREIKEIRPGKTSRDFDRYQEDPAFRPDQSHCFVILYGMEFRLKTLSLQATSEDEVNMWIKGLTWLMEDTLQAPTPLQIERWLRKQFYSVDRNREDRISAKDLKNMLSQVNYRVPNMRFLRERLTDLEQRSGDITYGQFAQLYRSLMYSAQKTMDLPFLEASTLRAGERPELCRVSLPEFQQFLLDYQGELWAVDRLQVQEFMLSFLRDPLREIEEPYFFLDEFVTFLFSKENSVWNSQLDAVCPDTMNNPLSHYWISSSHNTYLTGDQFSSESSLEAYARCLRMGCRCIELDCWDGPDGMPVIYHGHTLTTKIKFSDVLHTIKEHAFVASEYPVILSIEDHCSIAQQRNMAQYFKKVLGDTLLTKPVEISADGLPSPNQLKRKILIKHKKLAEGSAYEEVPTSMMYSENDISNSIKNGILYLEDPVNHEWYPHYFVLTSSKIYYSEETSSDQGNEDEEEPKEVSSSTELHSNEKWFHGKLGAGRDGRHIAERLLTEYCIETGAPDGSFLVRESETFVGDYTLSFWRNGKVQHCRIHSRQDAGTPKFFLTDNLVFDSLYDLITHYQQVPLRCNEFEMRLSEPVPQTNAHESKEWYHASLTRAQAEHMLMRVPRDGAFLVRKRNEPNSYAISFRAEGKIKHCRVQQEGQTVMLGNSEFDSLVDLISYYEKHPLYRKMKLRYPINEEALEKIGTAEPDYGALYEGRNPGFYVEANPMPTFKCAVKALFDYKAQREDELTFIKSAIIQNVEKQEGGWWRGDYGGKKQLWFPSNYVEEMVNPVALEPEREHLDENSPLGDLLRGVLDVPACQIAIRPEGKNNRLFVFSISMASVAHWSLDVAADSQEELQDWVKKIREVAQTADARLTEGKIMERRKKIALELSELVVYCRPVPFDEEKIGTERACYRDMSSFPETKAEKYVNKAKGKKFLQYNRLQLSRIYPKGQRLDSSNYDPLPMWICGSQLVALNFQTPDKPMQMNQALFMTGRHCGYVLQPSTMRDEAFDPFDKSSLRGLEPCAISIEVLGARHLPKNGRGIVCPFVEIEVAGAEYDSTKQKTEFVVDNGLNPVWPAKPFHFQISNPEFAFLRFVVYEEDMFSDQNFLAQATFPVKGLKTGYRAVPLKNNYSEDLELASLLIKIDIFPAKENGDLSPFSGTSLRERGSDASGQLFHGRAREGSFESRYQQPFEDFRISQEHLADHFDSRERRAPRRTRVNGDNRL

CCCCn1c(=O)n(CC(=O)Nc2ccc(OC)c(Cl)c2)c(=O)c2c1nc(CO)n2CCC
inactive: IC50 [1] > 123000 nM | IC50 [2] > 123000 nM

CCOc1ccc(C(=O)C2=C(O)C(=O)N(CC3CCCO3)C2c2ccco2)cc1 (stereo not drawn)
inactive: Ki (fMet-Leu-Phe receptor) 32000 nM

Cc1cccc(NC(=O)c2sc3nc4c(c(-c5cccs5)c3c2N)CN(C)CC4)c1
inactive: IC50 [3] > 20000 nM

COc1ccc(C)cc1NS(=O)(=O)c1ccc(-c2cnc(C3CC3)o2)cc1
inactive: IC50 [7] > 80000 nM
active: EC50 (BJ [4]) 990 nM | AC50 [5] 8910 nM | AC50 [6] 1770 nM | EC50 [8] 388 nM | EC50 (BJ [9]) 208 nM | AC50 [10] 199 nM | AC50 [12] 1490 nM | AC50 [13] 217 nM | AC50 [14] 3450 nM | AC50 (Paired box protein Pax-8) 734 nM | AC50 [15] 118 nM | AC50 [16] 3760 nM | AC50 [17] 5690 nM | EC50 (BJ [18]) < 104 nM | AC50 [19] 1830 nM | AC50 [20] 6580 nM | AC50 [21] 612 nM | AC50 [22] 337 nM | EC50 [23] 430 nM
inconclusive: EC50 (BJ [11]) 11100 nM

Cc1nc2ccccc2c(=O)n1NC(=O)c1ccc(Cl)c([N+](=O)[O-])c1
active: AC50 [24] 16800 nM

COc1ccc(-c2noc(CCC(=O)N3CCC(c4cc(C)ccc4C)CC3)n2)cc1
inactive: EC50 [25] > 67500 nM | IC50 [26] > 67500 nM

COc1ccc(S(=O)(=O)Nc2ccc3c(c2)CC(=O)N([C@H](C)CO)C[C@H](C)[C@H](CN(C)Cc2ccc(C(=O)Nc4ccccc4N)cc2)O3)cc1
active: AC50 [27] 29700 nM | AC50 [28] 24600 nM | AC50 [29] 23600 nM | AC50 [30] 3190 nM

COc1ccc(N/C=C2/C=C(Br)C(=O)OC2=O)c(OC)c1
active: IC50 [31] 3800 nM
inactive: IC50 [32] 11400 nM

CC(C)(C)OC(=O)NCCOCCOCCOc1ccc(N(C(=O)CCl)C(C(=O)NCCc2ccccc2)c2cccs2)cc1Cl (stereo not drawn)
active: AC50 [33] 643 nM | AC50 [34] 21400 nM | AC50 [35] 177 nM | AC50 [36] 675 nM | AC50 [37] 156 nM | AC50 [38] 492 nM | AC50 [39] 21200 nM | AC50 [40] 738 nM | AC50 [41] 126 nM | AC50 [42] 1450 nM | AC50 [43] 1790 nM

COc1ccc(CCNc2c3ccccc3nc3ccccc23)cc1
active: IC50 [44] 1100 nM

COc1cccc(CN2CC(C(=O)NCCc3cn4cccnc4n3)CCC2=O)c1 (stereo not drawn)
inactive: EC50 (Kallikrein-7) 23900 nM

CCOc1ccccc1NC(=O)c1cccc(NC(=O)C2CCOC2)c1 (stereo not drawn)
active: IC50 [45] 1330 nM
